The values below are quoted from earlier work in US20230330076A1, “CONTROLLED RELEASE FORMULATIONS OF FLAVOXATE AND PROCESS FOR PREPARATION THEREOF” (priority 2021, published 2023).

Where two headings read alike, the source gives them in different places.

Data set [1] deals with α- and β-noradrenergic, muscarinic, serotoninergic and opiate receptors, and calcium binding sites. Particulars: rat brain tissue.
Assay in data set [2]: not given
The source holds these as a separate data set.

With `Cc1c(-c2ccccc2)oc2c(C(=O)OCCN3CCCCC3)cccc2c1=O.Cl` [Flavoxate hydrochloride, 2-piperidinoethyl 3-methylflavone-8-carboxylate hydrochloride], the “binding activity on receptors” value in data set [1] is “only weak binding activity”. Further, the “time of peak level of MFCA” value runs as follows: (single oral 200 mg dose) 30 to 60 min; (single oral 400 mg dose) “around two hours”. In addition, where the note is “single oral dosing”, the “AUC for the 400 mg dose relative to the 200 mg dose” value is listed as “approximately twice as large”. The “dose excreted as MFCA” value (single oral dosing, within 12 hours) is listed as “About 50%” and the “dose excreted as MFCA” value in data set [2] (IV dose equimolar to 100 mg, urine) is 47%. The T½ in data set [2] (IV dose equimolar to 100 mg) was 1.39 h. The “apparent volume of distribution” value in data set [2] (IV dose equimolar to 100 mg) is 2.89 L/kg.

Consider 3-methylflavone carboxylic acid [MFCA], for which, in data set [2] (in vivo, iv, 100 mg), the “apparent volume of distribution” value is 0.20 L/kg.
